Assay results taken from US8916183B2, “Pesticidal compositions and processes related thereto” (priority 2012, dated 2014).

Experiments:
Type in all cases: in vivo
[1] = test system: Green Peach Aphid (GPA) (Myzus persicae); experiment: Bioassay on green peach aphid (GPA), foliar spray on cabbage seedlings; details: green peach aphid, 200 ppm, read-out: % Mortality GPA 200 ppm
Protocol: Certain molecules disclosed in this document were tested against GPA using procedures described in the following example. In the reporting of the results, the “GPA Rating Table” was used (See Table Section).
Cabbage seedlings grown in 3-inch pots, with 2-3 small (3-5 cm) true leaves, were used as test substrate. The seedlings were infested with 20-50 GPA (wingless adult and nymph stages) one day prior to chemical application. Four pots with individual seedlings were used for each treatment. Test compounds (2 mg) were dissolved in 2 mL of acetone/methanol (1:1) solvent, forming stock solutions of 1000 ppm test compound. […] A hand-held aspirator-type sprayer was used for spraying a solution to both sides of […] leaves until runoff. Reference plants (solvent check) were sprayed with the diluent only containing 20% by volume of acetone/methanol (1:1) solvent. Treated plants were held in a holding room for three days at approximately 25° C. and ambient relative humidity (RH) prior to grading. Evaluation was conducted by counting the number of live aphids per plant under a microscope. […] Corrected % Control=100*(X−Y)/X • where • X=No. of live aphids on solvent check plants and • Y=No. of live aphids on treated plants
The results are indicated in the table entitled “Table 5: Biological Results” (See Table Section).

[2] = test system: Beet Armyworm (BAW) (Spodoptera exigua); experiment: Bioassay on beet armyworm (BAW), 128-well diet tray assay; details: Spodoptera exigua; beet armyworm, 50 μg/cm^2; read-out: % Mortality BAW 50 μg/cm^2
Protocol: (§1) Certain molecules disclosed in this document were tested against BAW and CEW using procedures described in the following examples. In the reporting of the results, the “BAW & CEW Rating Table” was used (See Table Section).
Bioassays on BAW (Spodoptera exigua)
Bioassays on BAW were conducted using a 128-well diet tray assay. […] Trays were covered with a clear self-adhesive cover and held at 25° C., 14:10 light-dark for five to seven days. Percent mortality was recorded for the larvae in each well; activity in the eight wells was then averaged. The results are indicated in the table entitled “Table 5: Biological Results” (See Table Section).

[3] = test system: Corn Earworm (CEW) (Helicoverpa zea); experiment: Bioassay on corn earworm (CEW), 128-well diet tray assay; details: Helicoverpa zea; corn earworm, 50 μg/cm^2; read-out: % Mortality CEW 50 μg/cm^2
Protocol: as §1
Bioassays on CEW (Helicoverpa zea)
Bioassays on CEW were conducted using a 128-well diet tray assay. […] Trays were covered with a clear self-adhesive cover and held at 25° C., 14:10 light-dark for five to seven days. Percent mortality was recorded for the larvae in each well; activity in the eight wells was then averaged. The results are indicated in the table entitled “Table 5: Biological Results” (See Table Section).

| SMILES | mortality at 200 ppm [1] [%] | mortality at 50 µg/cm2 [2] [%] | mortality at 50 µg/cm2 [3] [%] |
| --- | --- | --- | --- |
| COCCC(=O)S/C(=N\c1c(C)cccc1C)N/N=C/c1ccc(-c2ncn(-c3ccc(OC(F)(F)F)cc3)n2)cc1 [Compound 21C] | 0 |  |  |
| COc1cc(C)c(/N=C(/N/N=C(\C)c2ccc(-c3ncn(-c4ccc(OC(F)(F)F)cc4)n3)cc2)SCOC(=O)C(C)C)c(C)c1 [Compound 26C] | 0 |  |  |
| Cc1cc(C)c(N2/C(=N/N=C/c3ccc(-c4ncn(-c5ccc(OC(F)(F)F)cc5)n4)cc3)SCC2C)c(C)c1 (centres unmarked) [Compound 161C] |  | 50 to 100 | 50 to 100 |
| COc1ccc(N2/C(=N/N=C/c3ccc(-c4ncn(-c5ccc(OC(F)(F)F)cc5)n4)cc3)SCC2C)c(C)c1 (centres unmarked) [Compound 162C] |  | 50 to 100 | 50 to 100 |
| CCC(C)c1ccccc1N1/C(=N/N=C/c2ccc(-c3ncn(-c4ccc(OC(F)(F)F)cc4)n3)cc2)SCC1C (centres unmarked) [Compound 163C] |  | 50 to 100 | 50 to 100 |
| CC1CS/C(=N\N=C\c2ccc(-c3ncn(-c4ccc(OC(F)(F)F)cc4)n3)cc2)N1c1ccccc1OC(F)F (centres unmarked) [Compound 164C] |  | 50 to 100 | 50 to 100 |
| CC1CS/C(=N\N=C\c2ccc(-c3ncn(-c4ccc(OC(F)(F)F)cc4)n3)cc2)N1c1ccccc1C(C)(C)C (centres unmarked) [Compound 165C] |  | 50 to 100 | 50 to 100 |
| CCC1CS/C(=N\N=C\c2ccc(-c3ncn(-c4ccc(OC(F)(F)F)cc4)n3)cc2)N1c1ccccc1C (centres unmarked) [Compound 166C] |  | 50 to 100 | 50 to 100 |
| CCC1CS/C(=N\N=C\c2ccc(-c3ncn(-c4ccc(OC(F)(F)F)cc4)n3)cc2)N1c1c(C)cccc1Cl (centres unmarked) [Compound 167C] |  | 50 to 100 | 50 to 100 |
| Cc1cs/c(=N\N=C\c2ccc(-c3ncn(-c4ccc(OC(F)(F)F)cc4)n3)cc2)n1-c1c(Cl)cccc1C(F)(F)F [Compound 169C] |  | 50 to 100 | 50 to 100 |
| Cc1cs/c(=N\N=C\c2ccc(-c3ncn(-c4ccc(OC(F)(F)F)cc4)n3)cc2)n1-c1ccccc1OC(F)(F)F [Compound 170C] |  | 50 to 100 | 50 to 100 |
| Cc1cs/c(=N\N=C\c2ccc(-c3ncn(-c4ccc(OC(F)(F)F)cc4)n3)cc2)n1-c1c(F)cccc1F [Compound 171C] |  | 50 to 100 | 50 to 100 |
| Cc1cs/c(=N\N=C\c2ccc(-c3ncn(-c4ccc(OC(F)(F)F)cc4)n3)cc2)n1-c1ccccc1C(C)C [Compound 176C] |  | 50 to 100 | 50 to 100 |
| FC(F)(F)Oc1ccc(-n2cnc(-c3ccc(/C=N/N=C4\SCCCN4c4ccccc4OC(F)(F)F)cc3)n2)cc1 [Compound 199C] |  | 50 to 100 | 50 to 100 |
| CCOC(=O)c1ccc(N2CCCS/C2=N\N=C\c2ccc(-c3ncn(-c4ccc(OC(F)(F)F)cc4)n3)cc2)cc1 [Compound 207C] |  | 0 | 0 |
| CC(C)(C)c1ccccc1N1CCCS/C1=N\N=C\c1ccc(-c2ncn(-c3ccc(OC(F)(F)F)cc3)n2)cc1 [Compound 210C] |  | 50 to 100 | 50 to 100 |
| CC1CS/C(=N\N=C\c2ccc(-c3ncn(-c4ccc(OC(F)(F)F)cc4)n3)cc2)N(c2ccccc2OC(F)(F)F)C1 (centres unmarked) [Compound 214C] |  | 50 to 100 | 50 to 100 |
| CC1CS/C(=N\N=C\c2ccc(-c3ncn(-c4ccc(OC(F)(F)F)cc4)n3)cc2)N(c2c(Cl)cccc2C(F)(F)F)C1 (centres unmarked) [Compound 215C] |  | 50 to 100 | 50 to 100 |
| CC1CCS/C(=N\N=C\c2ccc(-c3ncn(-c4ccc(OC(F)(F)F)cc4)n3)cc2)N1c1ccccc1OC(F)(F)F (centres unmarked) [Compound 216C] |  | 50 to 100 | 50 to 100 |
| CC1CCS/C(=N\N=C\c2ccc(-c3ncn(-c4ccc(OC(F)(F)F)cc4)n3)cc2)N1c1c(Cl)cccc1C(F)(F)F (centres unmarked) [Compound 217C] |  | 50 to 100 | 50 to 100 |
| Cc1cc(C)c(N2/C(=N/N=C/c3ccc(-c4ncn(-c5ccc(OC(F)(F)F)cc5)n4)cc3)SCCC2C)c(C)c1 (centres unmarked) [Compound 218C] |  | 50 to 100 | 50 to 100 |

| SMILES | mortality at 200 ppm [1] [%] | mortality at 50 µg/cm2 [2] [%] | mortality at 50 µg/cm2 [3] [%] |
| --- | --- | --- | --- |
| COc1ccc(N2/C(=N/N=C/c3ccc(-c4ncn(-c5ccc(OC(F)(F)F)cc5)n4)cc3)SCCC2C)c(C)c1 (centres unmarked) [Compound 219C] |  | 50 to 100 | 50 to 100 |
| CCC(C)c1ccccc1N1/C(=N/N=C/c2ccc(-c3ncn(-c4ccc(OC(F)(F)F)cc4)n3)cc2)SCCC1C (centres unmarked) [Compound 220C] |  | 50 to 100 | 50 to 100 |
| CC1CCS/C(=N\N=C\c2ccc(-c3ncn(-c4ccc(OC(F)(F)F)cc4)n3)cc2)N1c1ccccc1OC(F)F (centres unmarked) [Compound 221C] |  | 50 to 100 | 50 to 100 |
| CC1CCS/C(=N\N=C\c2ccc(-c3ncn(-c4ccc(OC(F)(F)F)cc4)n3)cc2)N1c1ccccc1C(C)(C)C (centres unmarked) [Compound 222C] |  | 50 to 100 | 50 to 100 |
| Cc1cccc(C)c1N1C(=O)CCS/C1=N\N=C\c1ccc(-c2ncn(-c3ccc(OC(F)(F)F)cc3)n2)cc1 [Compound 223C] |  | 50 to 100 | 50 to 100 |
| CCc1cccc(C)c1N1C(=O)CCS/C1=N\N=C\c1ccc(-c2ncn(-c3ccc(OC(F)(F)F)cc3)n2)cc1 [Compound 225C] |  | 50 to 100 | 50 to 100 |
| O=C1CCS/C(=N\N=C\c2ccc(-c3ncn(-c4ccc(OC(F)(F)F)cc4)n3)cc2)N1c1c(F)cccc1F [Compound 226C] |  | 50 to 100 | 50 to 100 |
| Cc1cccc(Cl)c1N1C(=O)CCS/C1=N\N=C\c1ccc(-c2ncn(-c3ccc(OC(F)(F)F)cc3)n2)cc1 [Compound 227C] |  | 50 to 100 | 50 to 100 |
| O=C1CCS/C(=N\N=C\c2ccc(-c3ncn(-c4ccc(OC(F)(F)F)cc4)n3)cc2)N1c1c(Cl)cccc1C(F)(F)F [Compound 228C] |  | 50 to 100 | 50 to 100 |
| CC(F)(F)Oc1ccccc1N1C(=O)CCS/C1=N\N=C\c1ccc(-c2ncn(-c3ccc(OC(F)(F)F)cc3)n2)cc1 [Compound 229C] |  | 50 to 100 | 50 to 100 |
| CCC(C)c1ccccc1N1C(=O)CCS/C1=N\N=C\c1ccc(-c2ncn(-c3ccc(OC(F)(F)F)cc3)n2)cc1 (centres unmarked) [Compound 230C] |  | 50 to 100 | 50 to 100 |
| COc1ccc(N2C(=O)CCS/C2=N\N=C\c2ccc(-c3ncn(-c4ccc(OC(F)(F)F)cc4)n3)cc2)c(C)c1 [Compound 231C] |  | 50 to 100 | 50 to 100 |
| CC(C)(C)c1ccccc1N1C(=O)CCS/C1=N\N=C\c1ccc(-c2ncn(-c3ccc(OC(F)(F)F)cc3)n2)cc1 [Compound 232C] |  | 50 to 100 | 50 to 100 |
| O=C1CCS/C(=N\N=C\c2ccc(-c3ncn(-c4ccc(OC(F)(F)F)cc4)n3)cc2)N1c1ccccc1OC(F)F [Compound 233C] |  | 50 to 100 | 50 to 100 |
| Cc1cccc(C(C)C)c1N1C(=O)CS/C1=N\N=C\c1ccc(-c2ncn(-c3ccc(OC(F)(F)F)cc3)n2)cc1 [Compound 238C] |  | 50 to 100 | 50 to 100 |
| CC1(O)CS/C(=N\c2c(Cl)cccc2C(F)(F)F)N1/N=C/c1ccc(-c2ncn(-c3ccc(OC(F)(F)F)cc3)n2)cc1 (centres unmarked) [Compound 241C, (Z)-2-((2-chloro-6-(trifluoromethyl)phenyl)imino)-4-methyl-3-((E)-(4-(1-(4-(trifluoromethoxy)phenyl)-1H-1,2,4-triazol-3-yl)benzylidene)amino)thiazolidin-4-ol] |  | 50 to 100 | 50 to 100 |
| CCC(C)c1ccccc1N1/C(=N/N=C/c2ccc(-c3ncn(-c4ccc(OC(F)(F)F)cc4)n3)cc2)SCC1(O)C(F)(F)F (centres unmarked) [Compound 247C] |  | 50 to 100 | 50 to 100 |
| CC1(O)CS/C(=N\N=C\c2ccc(-c3ncn(-c4ccc(OC(F)(F)F)cc4)n3)cc2)N1c1ccccc1C1CCCC1 (centres unmarked) [Compound 249C] |  | 50 to 100 | 50 to 100 |
| Cc1cccc(N2/C(=N/N=C/c3ccc(-c4ncn(-c5ccc(OC(F)(F)F)cc5)n4)cc3)SCC2(C)O)c1C(C)C (centres unmarked) [Compound 252C] |  | 50 to 100 | 50 to 100 |
| CC(C)c1cc(F)ccc1N1/C(=N/N=C/c2ccc(-c3ncn(-c4ccc(OC(F)(F)F)cc4)n3)cc2)SCC1(C)O (centres unmarked) [Compound 258C] |  | 50 to 100 | 50 to 100 |
